From patent publication US6451814B1, “Heterocyclic β-3 adrenergic receptor agonists” (Wyeth, priority 2000, dated 2002)
Where a name gives a salt, the structure may show the parent alone.

System: not given
Assay: not given
Settings: not given

| Structure (SMILES) | melting point [°C] |
| --- | --- |
| CCCCCCCCNC(=O)N1CCC(S(=O)(=O)c2ccc(CCNC[C@H](O)COc3ccc(O)c(C)c3)cc2)CC1 [Example 48, 4-(4-{2-[(2S)-2-Hydroxy-3-(4-hydroxy-3-methyl-phenoxy)-propylamino]-ethyl}-benzenesulfonyl)-piperidine-1-carboxylic Acid Octylamide] | 58 to 71 |
| O=C(NCC1(c2ccccc2)CCCC1)N1CCC(Sc2ccc(CCNC[C@H](O)COc3ccc(O)cc3)cc2)CC1 [Example 43, 4-(4-{2-[(2S)-2-Hydroxy-3-(4-hydroxy-phenoxy)-propylamino]-ethyl}-phenylsulfanyl)-piperidine-1-carboxylic Acid (1-phenyl-cyclopentylmethyl)-amide] | 132 |
| COc1ccc(CCCCNC(=O)N2CCC(Nc3ccc(CCNCC(O)COc4ccc(O)cc4)cc3)CC2)cc1OC (stereo not shown) [Example 57, 4-(4-{2-[2-Hydroxy-3-(4-hydroxy-phenoxy)-propylamino]-ethyl}-phenylamino)-piperidine-1-carboxylic Acid [4-(3,4-dimethoxy-phenyl)-butyl]-amide] | 60 to 62 |
| O=C(NCc1ccc(Cl)c(Cl)c1)N1CCC(Nc2ccc(CCNC[C@H](O)COc3ccc(O)cc3)cc2)CC1 (as salt: ammonium) [Example 21, 4-(4-{2-[(2S)-2-Hydroxy-3-(4-hydroxy-phenoxy)-propylamino]-ethyl}-phenylamino)-piperidine-1-carboxylic Acid 3,4-dichloro-benzylamide] | 94 to 97 |
| CCN(CC)C(=O)N1CCC(Nc2ccc(CCNC[C@H](O)COc3ccc(O)cc3)cc2)CC1 [Example 14, 4-(4-{2-[(2S)-2-Hydroxy-3-(4-hydroxy-phenoxy)-propylamino]-ethyl}-phenylamino)-piperidine-1-carboxylic Acid Diethylamide] | 61 to 65 |
| CCOC(=O)C1CCCN(C(=O)N2CCC(Nc3ccc(CCNC[C@H](O)c4ccc(O)c(NS(C)(=O)=O)c4)cc3)CC2)C1 (stereo partly drawn) (as salt: salt) [Example 78, 1-[[4-[[4-[2-[[(2R)-2-Hydroxy-2-[4-hydroxy-3-[(methylsulfonyl)amino]phenyl]ethyl]amino]ethyl]phenyl]amino]-1-piperidinyl]carbonyl]-3-piperidine Carboxylic Acid, Ethyl Ester] | 106 to 108 |
| CCCCCCCCNC(=O)N1CCC(Nc2ccc(CCNC[C@H](O)COc3cccc(NC(C)=O)c3)cc2)CC1 [Example 63, 4-(4-{2-[(2S)-3-(3-Acetylamino-phenoxy)-2-hydroxy-propylamino]-ethyl}-phenylamino)-piperidine-1-carboxylic Acid Octylamide] | 73 to 74 |
| O=C(NCc1ccc(F)cc1)N1CCC(Oc2ccc(CCNC[C@H](O)COc3ccc(O)cc3)cc2)CC1 (as salt: salt) [Example 56, 4-(4-{2-[(2S)2-Hydroxy-3-(4-hydroxy-phenoxy)-propylamino]-ethyl}-phenoxy)-piperidine-1-carboxylic Acid 4-fluoro-benzylamide] | 160 to 162 |
| COc1c(C(=O)N2CCC(Nc3ccc(CCNC[C@H](O)COc4cccc(NC(C)=O)c4)cc3)CC2)sc2ccccc12 (as salt: salt) [Example 98, N-{3-[(2S)-2-Hydroxy-3-(2-{4-[1-(3-methoxy-benzo[b]thiophene-2-carbonyl)-piperidin-4-ylamino]-phenyl}-ethylamino)-propoxy]-phenyl}-acetamide] | 96 to 98 |
| C=CCc1ccccc1OC[C@@H](O)CNCCc1ccc(NC2CCN(C(=O)NCCCCCCCC)CC2)cc1 (as salt: salt) [Example 4, 4-(4-{2-[(2S)-3-(2-Allyl-phenoxy)-2-hydroxy-propylamino]-ethyl}-phenylamino)-piperidine-1-carboxylic Acid Octylamide] | 73 to 80 |
| CCCCCCCCNC(=O)N1CCC(Nc2ccc(CCNC[C@H](O)c3cccc(Cl)c3)cc2)CC1 (as salt: salt) [Example 36, 4-(4-{2-[(2R)-2-(3-Chloro-phenyl)-2-hydroxy-ethylamino]-ethyl}-phenylamino)-piperidine-1-carboxylic Acid Octylamide] | 168 to 171 |
| CCNC(=O)N1CCC(Nc2ccc(CCNC[C@H](O)COc3ccc(O)cc3)cc2)CC1 (as salt: salt) [Example 10, 4-(4-{2-[(2S)-2-Hydroxy-3-(4-hydroxy-phenoxy)-propylamino]-ethyl}-phenylamino)-piperidine-1-carboxylic Acid Ethylamide] | 81 to 85 |
| CC(=O)Nc1ccc(S(=O)(=O)N2CCC(Nc3ccc(CCNC[C@H](O)COc4ccc(O)cc4)cc3)CC2)cc1 (as salt: salt) [Example 114, N-{4-[4-(4-{2-[(2S)-2-Hydroxy-3-(4-hydroxy-phenoxy)-propylamino]-ethyl}-phenylamino)-piperidine-1-sulfonyl]-phenyl}-acetamide] | 98 to 104 |
| CCCCCCCCNC(=O)N1CCC(Oc2ccc(CCNC[C@H](O)COc3ccc(O)cc3)cc2)CC1 (as salt: salt) [Example 54, 4-[4-(2-{[(2S)-2-Hydroxy-3-(4-hydroxyphenoxy)propyl]amino}ethyl)phenoxy]-N-octyl-1-piperidinecarboxamide] | 153 to 155 |
| COc1c(C(=O)N2CCC(Nc3ccc(CCNC[C@H](O)COc4ccc(O)cc4)cc3)CC2)sc2ccccc12 (as salt: salt) [Example 97, [4-(4-{2-[(2S)-2-Hydroxy-3-(4-hydroxy-phenoxy)-propylamino]-ethyl}-phenylamino)-piperidin-1-yl]-(3-methoxy-benzo[b]thiophen-2-yl)-methanone] | 84 to 86 |
| CNC(=O)N1CCC(Nc2ccc(CCNC[C@H](O)COc3ccc(O)cc3)cc2)CC1 (as salt: salt) [Example 9, 4-(4-{2-[(2S)-2-Hydroxy-3-(4-hydroxy-phenoxy)-propylamino]-ethyl}-phenylamino)-piperidine-1-carboxylic Acid Methylamide] | 72 to 77 |
| C=CCc1ccccc1OC[C@@H](O)CNCCc1ccc(NC2CCN(S(=O)(=O)c3ccc(N(CCCCCC)C(N)=O)cc3)CC2)cc1 [Example 110, N-[4-({4-[4-(2-{[(2S)-3-(2-allylphenoxy)-2-hydroxypropyl]amino}ethyl)anilino]-1-piperidinyl}sulfonyl)phenyl]-N-hexylurea] | 68 to 70 |
| Cc1ccc(S(=O)(=O)N2CCC(Nc3ccc(CCNC[C@H](O)COc4ccc(O)cc4)cc3)CC2)cc1 (as salt: salt) [Example 112, 4-[(2S)-2-Hydroxy-3-(2-{4-[1-(toluene-4-sulfonyl)-piperidin-4-ylamino]-phenyl}-ethylamino)-propoxy]-phenol] | 89 to 92 |
| O=C(O)COc1ccc(NC(=O)N2CCC(Nc3ccc(CCNC[C@H](O)COc4ccc(O)cc4)cc3)CC2)cc1 (as salt: salt) [Example 58, (4-{[4-(4-{2-[(2S)-2-Hydroxy-3-(4-hydroxy-phenoxy)-propylamino]-ethyl}-phenylamino)-piperidine-1-carbonyl]-amino}-phenoxy)-acetic Acid] | 175 |
| CCCCCCCCNC(=O)N1CCC(S(=O)(=O)c2ccc(CCNC[C@H](O)COc3ccc4c(c3)OCO4)cc2)CC1 [Example 49, 4-(4-{2-[(2S)-3-(Benzo[1,3]dioxol-5-yloxy)-2-hydroxy-propylamino]-ethyl}-benzenesulfonyl)-piperidine-1-carboxylic Acid Octylamide] | 84 to 86 |
| CCCCCCCCNC(=O)N1CCC(Nc2ccc(CCNC[C@H](O)CON=C3CCCc4c(O)cccc43)cc2)CC1 [Example 64, 4-(4-{2-[(2S)-2-Hydroxy-3-(5-hydroxy-3,4-dihydro-2H-naphthalen-1-ylideneaminooxy)-propylamino]-ethyl}-phenylamino)-piperidine-1-carboxylic Acid Octylamide] | 85 to 87 |
| O=C(NCc1ccc(Cl)cc1Cl)N1CCC(Nc2ccc(CCNC[C@H](O)COc3ccc(O)cc3)cc2)CC1 (as salt: ammonium) [Example 20, 4-(4-{2-[(2S)-2-Hydroxy-3-(4-hydroxy-phenoxy)-propylamino]-ethyl}-phenylamino)-piperidine-1-carboxylic Acid 2,4-dichloro-benzylamide] | 93 to 99 |
| Oc1ccc(OC[C@@H](O)CNCCc2ccc(NC3CCN(c4nc(-c5ccccc5)cs4)CC3)cc2)cc1 (as salt: hydrochloride) [Example 117, 4-[(2S)-2-Hydroxy-3-(2-{4-[1l-(4-phenyl-thiazol-2-yl)-piperidin-4-ylamino]-phenyl}-ethylamino)-propoxy]-phenol] | 80 to 82 |
| O=C(c1cc2cc(Br)ccc2[nH]1)N1CCC(Nc2ccc(CCNC[C@H](O)COc3ccc(O)cc3)cc2)CC1 (as salt: salt) [Example 96, (5-Bromo-1H-indol-2-yl)-[4-(4-{2-[(2S)-2-hydroxy-3-(4-hydroxy-phenoxy)-propylamino]-ethyl}-phenylamino)-piperidin-1-yl]-methanone] | 114 to 116 |
| CCCCCCCCNC(=O)N1CCC(Nc2ccc(CCNCC(O)c3ccc(O)c(C(N)=O)c3)cc2)CC1 (stereo not shown) (as salt: salt) [Example 7, 4-(4-{2-[2-(3-Carbamoyl-4-hydroxy-phenyl)-2-hydroxy-ethylamino]-ethyl}-phenylamino)-piperidine-1-carboxylic Acid Octylamide] | 101 to 104 |
| Cc1ccsc1C(=O)N1CCC(Nc2ccc(CCNC[C@H](O)COc3cccc4[nH]c(=O)[nH]c34)cc2)CC1 (as salt: salt) [Example 101, 4-[(2S)-2-Hydroxy-3-(2-{4-[1-(3-methyl-thiophene-2-carbonyl)-piperidin-4-ylamino]-phenyl}-ethylamino)-propoxy]-1,3-dihydro-benzoimidazol-2-one] | 128 to 130 |

Molecular target: T1, human β3-adrenergic receptor (Homo sapiens, UniProt P13945)
T1 construct: Full length β3 AR clones (402 amino acids) containing the last 6 amino acids of hβ3—AR are prepared; expressed in transfected cells; host or cells: CHO cells
Assay: cAMP response (SPA kit) in CHO cells transfected with human β3 adrenergic receptor
Format: cell-based
Settings: CHO cells expressing human β3-AR; 10^-9 M to 10^-5 M; 30 min at 37° C.; cAMP by SPA; read-out: EC50(β3)

T1 sequence (P13945 whole entry): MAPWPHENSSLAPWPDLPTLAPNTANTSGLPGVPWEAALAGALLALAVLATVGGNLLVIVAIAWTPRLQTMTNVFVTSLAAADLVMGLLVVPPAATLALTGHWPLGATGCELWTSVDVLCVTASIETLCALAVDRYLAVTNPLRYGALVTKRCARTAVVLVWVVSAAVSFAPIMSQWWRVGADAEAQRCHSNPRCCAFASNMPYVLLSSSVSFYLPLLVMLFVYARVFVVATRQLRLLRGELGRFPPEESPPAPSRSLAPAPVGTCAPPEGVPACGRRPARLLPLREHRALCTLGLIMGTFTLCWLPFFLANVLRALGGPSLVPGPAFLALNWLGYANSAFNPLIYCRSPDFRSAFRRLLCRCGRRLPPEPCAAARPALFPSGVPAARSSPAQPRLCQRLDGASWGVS

| Structure (SMILES) | EC50 [nM] |
| --- | --- |
| CCCCCCCCNC(=O)N1CCC(S(=O)(=O)c2ccc(CCNC[C@H](O)COc3ccc(O)c(C)c3)cc2)CC1 [Example 48, 4-(4-{2-[(2S)-2-Hydroxy-3-(4-hydroxy-3-methyl-phenoxy)-propylamino]-ethyl}-benzenesulfonyl)-piperidine-1-carboxylic Acid Octylamide] | 50 |
| O=C(NCC1(c2ccccc2)CCCC1)N1CCC(Sc2ccc(CCNC[C@H](O)COc3ccc(O)cc3)cc2)CC1 [Example 43, 4-(4-{2-[(2S)-2-Hydroxy-3-(4-hydroxy-phenoxy)-propylamino]-ethyl}-phenylsulfanyl)-piperidine-1-carboxylic Acid (1-phenyl-cyclopentylmethyl)-amide] | 390 |

Same assay, conditions: maximal response of compound compared to maximal response of isoproterenol at 10^-5 M; CHO cells, human β3-AR

| Structure (SMILES) | IA(β3) |
| --- | --- |
| CCCCCCCCNC(=O)N1CCC(S(=O)(=O)c2ccc(CCNC[C@H](O)COc3ccc(O)c(C)c3)cc2)CC1 [Example 48, 4-(4-{2-[(2S)-2-Hydroxy-3-(4-hydroxy-3-methyl-phenoxy)-propylamino]-ethyl}-benzenesulfonyl)-piperidine-1-carboxylic Acid Octylamide] | 0.7 |
| O=C(NCC1(c2ccccc2)CCCC1)N1CCC(Sc2ccc(CCNC[C@H](O)COc3ccc(O)cc3)cc2)CC1 [Example 43, 4-(4-{2-[(2S)-2-Hydroxy-3-(4-hydroxy-phenoxy)-propylamino]-ethyl}-phenylsulfanyl)-piperidine-1-carboxylic Acid (1-phenyl-cyclopentylmethyl)-amide] | 0.81 |
| COc1ccc(CCCCNC(=O)N2CCC(Nc3ccc(CCNCC(O)COc4ccc(O)cc4)cc3)CC2)cc1OC (stereo not shown) [Example 57, 4-(4-{2-[2-Hydroxy-3-(4-hydroxy-phenoxy)-propylamino]-ethyl}-phenylamino)-piperidine-1-carboxylic Acid [4-(3,4-dimethoxy-phenyl)-butyl]-amide] | 0.94 |
